Laboratory results: patent US10294202B2, “Pyrrolidinones as herbicides” (FMC Corporation, priority 2013, dated 2019)

Columns and labels:
[1] = tested on: morningglory; assay: Test A pre-/postemergence herbicide test; format: in vivo, Ipomoea spp.; details: for Morningglory plant response rating: Preemergence, visual rating on 0 to 100 scale (0 no effect, 100 complete control)
Method in brief: (§1)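 Seeds sown in loam soil/sand blend received a preemergence directed soil spray of test chemical in non-phytotoxic solvent with surfactant; postemergence plants (2–10 cm, one- to two-leaf stage) were sprayed with the same formulation. After about 10 days in greenhouse, injury was rated visually versus untreated controls, 0 (no effect) to 100 (complete control).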

[2] = tested on: pigweed; assay: Test A pre-/postemergence herbicide test; format: in vivo, Amaranthus retroflexus; details: for Pigweed plant response rating: Preemergence, visual rating on 0 to 100 scale (0 no effect, 100 complete control)
Method in brief: as §1

[3] = tested on: pigweed; assay: Test C pre-/postemergence herbicide test; format: in vivo, Amaranthus retroflexus
Method in brief: (§2)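 Visual rating, 0 (no effect) to 100 (complete control), versus untreated controls after 13 to 15 days in the greenhouse. Pre: seeds in loam/sand, sprayed at planting. Post: 1- to 4-leaf plants (2 to 18 cm) in peat-based mix. Compounds in non-phytotoxic solvent plus surfactant.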

[4] = tested on: barnyardgrass; assay: Test C pre-/postemergence herbicide test; format: in vivo, Echinochloa crus-galli; details: for Barnyardgrass plant response rating: scale 0 to 100, 0 is no effect and 100 is complete control
Method in brief: as §2

[5] = tested on: sedge, umbrella; assay: Test C flooded paddy test; format: in vivo, Cyperus difformis; details: Flood
Method in brief: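 Plants grown to the 2-leaf stage; pots flooded to 3 cm above soil and compound applied directly into the paddy water, depth kept throughout. Greenhouse 13 to 15 days, then visual rating vs untreated controls on 0–100 scale (0 no effect, 100 complete control); dash means no result.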

[6] = tested on: ragweed; assay: Test A pre-/postemergence herbicide test; format: in vivo, Ambrosia elatior; details: for Plant response rating, Ragweed: 0 to 100 scale
Method in brief: as §1

[7] = tested on: ryegrass, Italian; assay: Test A pre-/postemergence herbicide test; format: in vivo, Lolium multiflorum; details: for Plant response rating, Ryegrass, Italian: 0 to 100 scale
Method in brief: as §1

[8] = tested on: ducksalad; assay: Test B flooded paddy test; format: in vivo, Heteranthera limosa; details: Flood, scale of 0 to 100 where 0 is no effect and 100 is complete control
Method in brief: (§3)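 Paddy-water application at a 3 cm flood, young plants having two leaves. Water level maintained; greenhouse, 13–15 days; visual 0–100 control rating.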

[9] = tested on: barnyardgrass; assay: Test B flooded paddy test; format: in vivo, Echinochloa crus-galli; details: Flood, scale of 0 to 100 where 0 is no effect and 100 is complete control
Method in brief: as §3

[10] = Postemergence, 125 g ai/ha, 0 to 100 scale, 0 no effect, 100 complete control
[11] = Postemergence, 500 g ai/ha, 0 to 100 scale (0 no effect, 100 complete control)
[12] = preemergence, 500 g ai/ha, 0 to 100 scale
[13] = Postemergence, 31 g ai/ha, scale 0 (no effect) to 100 (complete control)
[14] = Postemergence, 62 g ai/ha, scale 0 to 100 (0 no effect, 100 complete control)
[15] = Postemergence, 125 g ai/ha, scale 0 to 100 (0 no effect, 100 complete control)
[16] = Postemergence, 250 g ai/ha, scale 0 to 100 (0 no effect, 100 complete control)
[17] = Preemergence, 31 g ai/ha, scale 0 to 100, 0 is no effect and 100 is complete control
[18] = Preemergence, 62 g ai/ha, scale 0 to 100
[19] = Preemergence, 125 g ai/ha, scale 0 to 100 (0 no effect, 100 complete control)
[20] = 125 g ai/ha, scale of 0 to 100 where 0 is no effect and 100 is complete control, 13 to 15 days
[21] = 125 g ai/ha, visual rating, 0 no effect, 100 complete control, approximately 10 days, preemergence
[22] = Postemergence, 125 g ai/ha, 0 no effect, 100 complete control
[23] = 125 g ai/ha, visual rating, 0 to 100 scale, 0 no effect, 100 complete control, approximately 10 days, preemergence
[24] = Postemergence, 31 g ai/ha, scale 0 to 100 (0 no effect, 100 complete control)
[25] = Postemergence, 62 g ai/ha, scale 0 (no effect) to 100 (complete control)
[26] = 62 g ai/ha, scale of 0 to 100 where 0 is no effect and 100 is complete control, 13 to 15 days
[27] = 31 g ai/ha, scale of 0 to 100 where 0 is no effect and 100 is complete control, 13 to 15 days
[28] = Postemergence, 125 g ai/ha, 0 is no effect, 100 is complete control
[29] = preemergence, 500 g ai/ha, 0 is no effect and 100 is complete control
[30] = Postemergence, 125 g ai/ha, 0 to 100 scale, 0 is no effect, 100 is complete control
[31] = preemergence, 500 g ai/ha, 0 to 100 scale, 0 is no effect and 100 is complete control
[32] = Preemergence, 62 g ai/ha, scale 0 to 100 (0 no effect, 100 complete control)
[33] = 250 g ai/ha, scale of 0 to 100 where 0 is no effect and 100 is complete control, 13 to 15 days

Compound	Plant response rating, Pigweed [2, 10]	Plant response rating, Pigweed [2, 12]	Plant response rating, Pigweed [3, 15]	Plant response rating, Pigweed [3, 16]	Pigweed plant response rating [3, 17]	Plant response rating, Pigweed [3, 18]	Plant response rating, Pigweed [3, 19]	Plant response rating (scale of 0 to 100), Pigweed ([3]; Preemergence, 250 g ai/ha)	Plant response rating, Barnyardgrass [4, 15]	Plant response rating, Barnyardgrass [4, 16]	Barnyardgrass plant response rating ([4]; Preemergence, 31 g ai/ha)	Plant response rating, Barnyardgrass [4, 18]	Plant response rating, Barnyardgrass [4, 19]	Plant response rating (scale of 0 to 100; 0 is no effect, 100 is complete control), Barnyardgrass ([4]; Preemergence, 250 g ai/ha)	Plant response rating, Sedge, Umbrella [5, 20]	Plant response rating, Sedge, Umbrella ([5]; 250 g ai/ha, scale 0 to 100)	Plant response rating, Sedge, Umbrella ([5]; 500 g ai/ha, scale 0 to 100)	Plant response rating, Ragweed [6, 21]	Ragweed plant response rating (0 to 100 scale, 0 is no effect, 100 is complete control) ([6]; Postemergence, 500 g ai/ha)	Plant response rating, Ryegrass, Italian [7, 21]	other results
O=C1NCC(c2ccc(F)c(F)c2)C1C(=O)Nc1cccc(F)c1F (racemic) [Compound 101]	20	70	15	45	0	0	55	85	65	90	90	95	95	95	0	0	0				Plant response rating, Morningglory [1, 10]: 30; Plant response rating, Morningglory [1, 11]: 60; Morningglory plant response rating ([1]; 125 g ai/ha): 0; Plant response rating, Morningglory [1, 12]: 50; Plant response rating, Pigweed [2, 11]: 70; Pigweed plant response rating ([2]; 125 g ai/ha): 10; Plant response rating, Pigweed [3, 13]: 0; Plant response rating, Pigweed [3, 14]: 10; Plant response rating, Barnyardgrass [4, 13]: 0; Plant response rating, Barnyardgrass [4, 14]: 35; Plant response rating, Sedge, Umbrella ([5]; 1000 g ai/ha, scale 0 to 100): 0
O=C1NCC(c2ccc(F)cc2)C1C(=O)Nc1ccc(F)c(F)c1F (racemic) [Compound 120]	20	40	40	60	50	45	65	80	40	65	85	90	95	98	0	0	0	60	50	30	Plant response rating, Ragweed [6, 22]: 30; Plant response rating, Ragweed ([6]; preemergence, 500 g ai/ha): 80; Plant response rating, Ryegrass, Italian [7, 22]: 30; Ryegrass, Italian plant response rating (0 to 100 scale, 0 is no effect, 100 is complete control) ([7]; Postemergence, 500 g ai/ha): 50; Plant response rating, Ryegrass, Italian ([7]; preemergence, 500 g ai/ha): 50; Plant response rating, Pigweed [2, 23]: 30; Pigweed plant response rating (0 to 100 scale, 0 is no effect, 100 is complete control) ([2]; Postemergence, 500 g ai/ha): 50; Plant response rating, Ducksalad ([8]; 500 g ai/ha): 100; Plant response rating, Barnyardgrass ([9]; 500 g ai/ha): 80; Plant response rating, Pigweed [3, 24]: 5; Plant response rating, Pigweed [3, 25]: 20; Plant response rating, Barnyardgrass [4, 24]: 0; Plant response rating, Barnyardgrass [4, 25]: 30; Plant response rating, Sedge, Umbrella [5, 26]: 0
O=C1NCC(c2ccc(Cl)c(F)c2)C1C(=O)Nc1cccc(F)c1F (stereo not shown) [Compound 52]	0	40	50	60		20	55								50	75					Plant response rating, Morningglory [1, 10]: 0; Plant response rating, Morningglory [1, 11]: 0; Morningglory plant response rating ([1]; 125 g ai/ha): 0; Plant response rating, Morningglory [1, 12]: 0; Plant response rating, Pigweed [2, 11]: 40; Pigweed plant response rating ([2]; 125 g ai/ha): 0; Plant response rating, Ducksalad ([8]; 250 g ai/ha): 90; Plant response rating, Barnyardgrass ([9]; 250 g ai/ha): 55; Plant response rating, Pigweed [3, 13]: 25; Plant response rating, Pigweed [3, 14]: 40; Plant response rating, Sedge, Umbrella [5, 27]: 0; Plant response rating, Sedge, Umbrella [5, 26]: 40
O=C1NC[C@H](c2cccc(C(F)(F)F)c2)[C@H]1C(=O)Nc1cccc(F)c1F [Compound 206]			50	30	70		100	85	80	80	90	90	95	95	0		0	60	50	40	Plant response rating, Ragweed [6, 28]: 0; Plant response rating, Ragweed [6, 29]: 70; Plant response rating, Ryegrass, Italian [7, 28]: 50; Ryegrass, Italian plant response rating (0 to 100 scale, 0 is no effect, 100 is complete control) ([7]; Postemergence, 500 g ai/ha): 60; Plant response rating, Ryegrass, Italian [7, 29]: 80; Plant response rating, Pigweed [2, 23]: 30; Plant response rating, Pigweed [2, 30]: 50; Pigweed plant response rating (0 to 100 scale, 0 is no effect, 100 is complete control) ([2]; Postemergence, 500 g ai/ha): 70; Plant response rating, Pigweed [2, 31]: 80; Plant response rating, Pigweed [3, 24]: 30; Plant response rating, Pigweed [3, 25]: 40; Pigweed plant response rating [3, 32]: 100; Plant response rating, Barnyardgrass [4, 24]: 25; Plant response rating, Barnyardgrass [4, 25]: 40; Plant response rating, Sedge, Umbrella [5, 33]: 0; Plant response rating, Sedge, Umbrella ([5]; 1000 g ai/ha, scale 0 to 100): 0
O=C1NCC(c2cccc(OC(F)F)c2)C1C(=O)Nc1cccc(F)c1F (stereo not shown) [Compound 224]			60	65	0		60	85	50	75	75	85	90	95	0			90	60	60	Plant response rating, Ragweed [6, 28]: 40; Plant response rating, Ragweed [6, 29]: 90; Plant response rating, Ryegrass, Italian [7, 28]: 50; Ryegrass, Italian plant response rating (0 to 100 scale, 0 is no effect, 100 is complete control) ([7]; Postemergence, 500 g ai/ha): 60; Plant response rating, Ryegrass, Italian [7, 29]: 70; Plant response rating, Pigweed [2, 23]: 80; Plant response rating, Pigweed [2, 30]: 60; Pigweed plant response rating (0 to 100 scale, 0 is no effect, 100 is complete control) ([2]; Postemergence, 500 g ai/ha): 80; Plant response rating, Pigweed [2, 31]: 80; Plant response rating, Ducksalad ([8]; 500 g ai/ha): 100; Plant response rating, Barnyardgrass ([9]; 500 g ai/ha): 70; Plant response rating, Pigweed [3, 24]: 40; Plant response rating, Pigweed [3, 25]: 55; Pigweed plant response rating [3, 32]: 25; Plant response rating, Barnyardgrass [4, 24]: 0; Plant response rating, Barnyardgrass [4, 25]: 30; Plant response rating, Sedge, Umbrella [5, 27]: 0; Plant response rating, Sedge, Umbrella [5, 26]: 0; Plant response rating, Sedge, Umbrella [5, 33]: 0
